What was measured:
Format in all cases: cell-based
FXR1 = experiment: Western blot of FXR1 levels in AraC treated THP1 cells; settings: AraC treated surviving THP1 cells compared to untreated (1 μM AraC, FIG. 1A)
Description: (§1) THP1 cells were cultured in […] media supplemented with 10% fetal bovine serum (FBS), 2 mM L-Glutamine, 100 μg/mL streptomycin and 100 U/ml penicillin at 37° C. in 5% CO2. SS THP1 cells were prepared by washing with PBS followed by serum-starvation at a density of 2×10^5 cells/mL and AraCS cells, by treatment with indicated concentrations of AraC for indicated periods of time. THP1 (TIB-202) and MV4:11 (CRL-9591) were obtained from ATCC. MOLM13 (ACC554) were obtained from DSMZ. Cell lines kindly provided by David Scadden.
(§2) Cells were collected and resuspended in lysis buffer containing 40 mM Tris-HCl (pH 7.4), 6 mM MgCl2, 150 mM NaCl, 0.1% NP-40, 1 mM DTT, […], 17.5 mM β-glycerophosphate, 5 mM NaF and protease inhibitors. Samples containing 80 μg of protein were loaded onto 4%-20% gradient SDS-PAGE (Bio-Rad) or 16% SDS-PAGE (Invitrogen), transferred to PVDF membranes and processed for immunoblotting.
Antibodies against FXR1 (used for Western), Actin, Tubulin were from Millipore; NOLC1, DDX21, PolR1D, RPLP0, RPLP2, RPL29, RPL11, FXR1 (used for Immunoprecipitation) were from Protein Tech; PKR, P—PKR, EIF2α, P-EIF2α, GCN2 (used for immunoprecipitation) were from Cell Signaling; P-GCN2, GCN2 (used for Western) were from abcam.

[1] = tested on: 28S rRNA snoRA22 sites U4966 and U4975; experiment: Low dNTP CMCT qPCR assay of rRNA pseudouridylation; settings: AraC cells (THP1)
Description: For analysis of 2′O-methylation, RNA was prepared from indicated cells. Reverse transcription (as described above in qPCR) was performed with primers in the reverse orientation from the modification site on ribosomal RNA. Two different dNTP concentrations were used for each primer, low (0.025 mM) and high (2.5 mM). qPCR was done with the resulting cDNA using primers at forward and reverse orientation to the modified sites. Fold change in modification was calculated based on difference of Ct values in the low and high dNTP conditions. For analyzing pseudouridylation, first the RNA was treated with CMCT (1-cyclohexyl-(2-morpholinoethyl) carbodiimide metho-p-toluene sulfonate) under alkaline conditions. Rest of the experiment was done as described above for 2′O-methylation.

PKR = experiment: Western blot of phosphorylated PKR in AraC treated cells; settings: AraC treated cells (0, 1, 5 μM AraC), normalized to total PKR
Description: Cells were collected and resuspended in lysis buffer containing 40 mM Tris-HCl (pH 7.4), 6 mM MgCl2, 150 mM NaCl, 0.1% NP-40, 1 mM DTT, 20 mM, 17.5 mM β-glycerophosphate, 5 mM NaF and protease inhibitors. Samples containing 80 μg of protein were loaded onto 4%-20% gradient SDS-PAGE (Bio-Rad) or 16% SDS-PAGE (Invitrogen), transferred to PVDF membranes and processed for immunoblotting. Antibodies against FXR1 (used for Western), Actin, Tubulin were from Millipore; NOLC1, DDX21, PolR1D, RPLP0, RPLP2, RPL29, RPL11, FXR1 (used for Immunoprecipitation) were from Protein Tech; PKR, P—PKR, EIF2α, P-EIF2α, GCN2 (used for immunoprecipitation) were from Cell Signaling; P-GCN2, GCN2 (used for Western) were from abcam.

ATF4 = experiment: Western blot of non-canonical translation target ATF4 with ISRIB; settings: in the presence of ISRIB
Description: as §2

[2] = tested on: FXR1-overexpression cells; experiment: Polysome analysis followed by qPCR of mRNAs, with or without ISRIB; settings: FXR1 OE cells, 1 μM trans-ISRIB for 24 h
Description: Sucrose was dissolved in lysis buffer containing 100 mM KCl, 5 mM MgCl2, 2 mM DTT and 10 mM Tris-HCl (pH 7.4). Sucrose gradients from 10% to 55% were prepared in ultracentrifuge tubes (Beckman). Harvested cells were rinsed with ice-cold PBS and resuspended in lysis buffer with 1% Triton X-100 and 40 U/mL […] (New England Biolabs) for 20 minutes with intermittent tapping on ice. After centrifugation of cell lysates at 12,000×g for 20 minutes, supernatants were loaded onto sucrose gradients followed by ultracentrifugation (Beckman Coulter Optima L90) at 32,500×rpm at 4° C. for 80 min in the SW40 rotor. Samples were separated by density gradient fractionation system (Biocomp Piston Gradient Fractionation). RNAs were purified by using TRIzol (Invitrogen) from heavy polysome fractions and whole cell lysates. The synthesized cDNA probes from WT Expression Kit (Ambion) were hybridized to Gene Chip Human Transcriptome Array 2.0 (Affymetrix) and analyzed by the Partners Healthcare Center for Personalized Genetic Medicine Microarray and BUMC facilities. Gene ontology analysis for differentially expressed translatome or proteome was conducted by DAVID 6.7 tools. Molecular signatures enriched in FXR1 OE and Control cells were identified by Gene Set Enrichment Analysis (GSEA).
Total RNA was isolated using TRIzol (Invitrogen) according to the manufacturer's instructions. […]

FXR1 OE cells (THP1) = experiment: Chemosurvival (fraction of cell viability) of FXR1 OE cells treated with AraC plus inhibitor
Description: as §1
THP1 FXR1 OE cell lines were created by infecting cells with an FXR1 containing retroviral vector for constitutive over expression of FXR1. Corresponding control cell lines were made by infection with empty vector.
(§3) Cytarabine (AraC), Trans-ISRIB, FX-1, and Toyocamycin were obtained from Cayman Chemicals. For polysome analysis, FXR1 OE and control cells were treated with 1 μM trans-ISRIB for 24 h. For cell viability FXR1 OE and control cells were treated individually or with a combination of 5 μM AraC and 1 μM trans-ISRIB for 24 h; 100 nM Toyocamycin and 1 μM AraC; 10 μM FX-1 and 5 μM AraC.

G0 cells (THP1) = experiment: Chemosurvival of G0 cells treated with ISRIB and AraC; settings: ISRIB and AraC (FIG. 4H)
Description: as §1, §3

Nc1ccn([C@@H]2O[C@H](CO)[C@@H](O)[C@@H]2O)c(=O)n1 [AraC, Cytarabine]
FXR1 protein level (FXR1): increases
rRNA pseudouridylation at snoRA22 sites on 28S at U4966 and U4975 [1]: increases
phosphorylation and activation of PKR (PKR): increased phosphorylation and activation

O=C(COc1ccc(Cl)cc1)NC1CCC(NC(=O)COc2ccc(Cl)cc2)CC1 (stereo not drawn) [ISRIB]
level of known non-canonical targets such as ATF4 (ATF4): decrease
polysome association of mRNAs that are upregulated in FXR1-overexpressing cells [2]: reduced polysome association
polysome association of other genes like vinculin [2]: without affecting
chemosurvival (FXR1 OE cells (THP1); FXR1 OE cells, 1 μM trans-ISRIB combined with 5 μM AraC, 24 h, compared to buffer and AraC): reduced chemosurvival
chemosurvival (G0 cells (THP1)): reduced chemosurvival

N#Cc1cn([C@@H]2O[C@H](CO)[C@@H](O)[C@H]2O)c2ncnc(N)c12 [Toyocamycin]
chemosurvival (FXR1 OE cells (THP1); 100 nM Toyocamycin and 1 μM AraC, FXR1 OE and control cells (FIG. 4I)): decreased
